Laboratory results: patent US4829076A, “Novel dihydropyridines having calcium antagonistic and antihypertensive activity” (Alkaloida Vegyeszeti Gyar, priority 1986, dated 1989)
Like-named read-outs stand apart in the source and are kept apart here.

How the values were obtained:
[1] = test system: anesthetized, normotensive cats; assay: Hypotensive effect in anesthetized, normotensive cats; assay type: in vivo, cat; details: 1 mg/kg id.
Procedure: A tube was inserted in the trachea of cats anesthetized with ip.35 mg/kg of pentobarbital sodium to ensure spontaneous respiration. The femoral artery and vein were both cannulated unilaterally. The vegetative test compounds (adrenaline, isoproterenol) were administered through the venous cannule. The mean arterial blood pressure was measured by joining the arterial cannule to a Statham P23Db pressure transducer and electromanometer. The heart rate was determined by a cardiotachometer triggered by arterial pulse-wave.
Various doses of the test compounds were administered through a cannule inserted into the duodenum.

[2] = test system: spontaneously hypertensive conscious rats; assay: Antihypertensive effect in spontaneously hypertensive conscious rats ("SH" rats); assay type: in vivo, rat (Wistar-Okamoto); details: for change in vivo at 5 mg/kg / change in vivo at 10 mg/kg: Rattus norvegicus, po
Procedure: The blood pressure of rats was measured before treatment and hourly after drug administration till the 24th posttreatment hour. The test compounds were administered orally, by gavage.

[3] = test system: conscious rats with renal hypertension; assay: Antihypertensive effect in rats with renal hypertension ("RH" rats); assay type: in vivo, rat (CFY male); details: for Systolic blood pressure, 0 h: 0 h (baseline)
Procedure: The test was performed according to the method of Grollman [Proc. Soc. Exptl. […] The test compounds were administered orally.

[4] = test system: conscious rats with DOCA-induced hypertension; assay: Antihypertensive effect in rats with DOCA-induced hypertension ("DH" rats); assay type: in vivo, rat; details: for Systolic blood pressure, 0 h: 0 h (baseline)
Procedure: The test was performed according to Cunning et al. [J. Pharm. Exp. Ther. 161, 88 (1981)].

[5] = molecular target: T1, potential-mediated calcium channel (Rattus norvegicus, UniProt P22002); assay: Calcium-antagonistic effect on an isolated vessel preparation (portal vein); details: depolarizing solution (90 mM KCl), CaCl2 2.5 and 5.0 mM, 37° C., pH 7.4, read-out: Inhibition of the potential-mediated calcium channel, IC50
T1 construct: Portal veins were obtained from decapitated male rats; from tissue; host or cells: rat portal vein (longitudinally incised venous segment)
Procedure: Portal veins were obtained from decapitated male rats weighing 300 to 350 g. The longitudinally incised venous segment was suspended in an organ chamber (10 ml) filled with physiological saline solution under resting tension of 1 g. Its upper end was attached to a HSI force-displacement transducer. Isometric contractions were recorded with a Beckman Dynograph.
After the initial equilibration period in a calcium-free Krebs-Ringer bicarbonate solution (KRB) the vein was exposed to a depolarizing solution (calcium-free KRB containing 90 mM of KCl) for 10 minutes. In order to determine the cumulative contractile responses CaCl2 was added in an end-concentration of 2.5 and 5.0 mM, resp. Each medium was oxygenated with carbogen gas and maintained at 37° C. and pH 7.4.
The influence of the test compounds on the contraction was determined by incubating the veins in the depolarizing solution for 10 minutes before and during exposure to Ca^2+. Each vein preparation was subjected to a single concentration of the test compound.
For each experiment the 100% responses were considered as the maximum contractile responses during the control Ca curves. The contractions after exposure to the test compounds were expressed as the percentage of these values.

[6] = molecular target: T2, 1,4-dihydropyridine receptor; assay: Receptor binding studies (displacement of 3H-nitrendipine, heart microsomal preparation); details: displacement of 50% of 3H-nitrendipine
T2 construct: to the heart microsomal preparation; from tissue; host or cells: heart microsomal preparation

[7] = test system: PGF2alpha induced uterus contractions (isolated rat uterus); assay: In vitro uterus relaxant activity in the isolated rat uterus (inhibition of PGF2alpha induced contraction); details: 10^-6 M test compound
Procedure: The test was performed according to the method of Gaddum and Hammeed [Brit. […] The inhibitory activity of 10^-6 M doses of the test compounds on the PGF2alpha induced uterus contractions was determined.

[8] = 10 mg/kg p.o., 2 h, read-out: Systolic blood pressure reduction in %, 2 h
[9] = 10 mg/kg p.o., 5 h, read-out: Systolic blood pressure reduction in %, 5 h
[10] = 10 mg/kg p.o., 24 h, read-out: Systolic blood pressure reduction in %, 24 h

T1 sequence (P22002 whole entry): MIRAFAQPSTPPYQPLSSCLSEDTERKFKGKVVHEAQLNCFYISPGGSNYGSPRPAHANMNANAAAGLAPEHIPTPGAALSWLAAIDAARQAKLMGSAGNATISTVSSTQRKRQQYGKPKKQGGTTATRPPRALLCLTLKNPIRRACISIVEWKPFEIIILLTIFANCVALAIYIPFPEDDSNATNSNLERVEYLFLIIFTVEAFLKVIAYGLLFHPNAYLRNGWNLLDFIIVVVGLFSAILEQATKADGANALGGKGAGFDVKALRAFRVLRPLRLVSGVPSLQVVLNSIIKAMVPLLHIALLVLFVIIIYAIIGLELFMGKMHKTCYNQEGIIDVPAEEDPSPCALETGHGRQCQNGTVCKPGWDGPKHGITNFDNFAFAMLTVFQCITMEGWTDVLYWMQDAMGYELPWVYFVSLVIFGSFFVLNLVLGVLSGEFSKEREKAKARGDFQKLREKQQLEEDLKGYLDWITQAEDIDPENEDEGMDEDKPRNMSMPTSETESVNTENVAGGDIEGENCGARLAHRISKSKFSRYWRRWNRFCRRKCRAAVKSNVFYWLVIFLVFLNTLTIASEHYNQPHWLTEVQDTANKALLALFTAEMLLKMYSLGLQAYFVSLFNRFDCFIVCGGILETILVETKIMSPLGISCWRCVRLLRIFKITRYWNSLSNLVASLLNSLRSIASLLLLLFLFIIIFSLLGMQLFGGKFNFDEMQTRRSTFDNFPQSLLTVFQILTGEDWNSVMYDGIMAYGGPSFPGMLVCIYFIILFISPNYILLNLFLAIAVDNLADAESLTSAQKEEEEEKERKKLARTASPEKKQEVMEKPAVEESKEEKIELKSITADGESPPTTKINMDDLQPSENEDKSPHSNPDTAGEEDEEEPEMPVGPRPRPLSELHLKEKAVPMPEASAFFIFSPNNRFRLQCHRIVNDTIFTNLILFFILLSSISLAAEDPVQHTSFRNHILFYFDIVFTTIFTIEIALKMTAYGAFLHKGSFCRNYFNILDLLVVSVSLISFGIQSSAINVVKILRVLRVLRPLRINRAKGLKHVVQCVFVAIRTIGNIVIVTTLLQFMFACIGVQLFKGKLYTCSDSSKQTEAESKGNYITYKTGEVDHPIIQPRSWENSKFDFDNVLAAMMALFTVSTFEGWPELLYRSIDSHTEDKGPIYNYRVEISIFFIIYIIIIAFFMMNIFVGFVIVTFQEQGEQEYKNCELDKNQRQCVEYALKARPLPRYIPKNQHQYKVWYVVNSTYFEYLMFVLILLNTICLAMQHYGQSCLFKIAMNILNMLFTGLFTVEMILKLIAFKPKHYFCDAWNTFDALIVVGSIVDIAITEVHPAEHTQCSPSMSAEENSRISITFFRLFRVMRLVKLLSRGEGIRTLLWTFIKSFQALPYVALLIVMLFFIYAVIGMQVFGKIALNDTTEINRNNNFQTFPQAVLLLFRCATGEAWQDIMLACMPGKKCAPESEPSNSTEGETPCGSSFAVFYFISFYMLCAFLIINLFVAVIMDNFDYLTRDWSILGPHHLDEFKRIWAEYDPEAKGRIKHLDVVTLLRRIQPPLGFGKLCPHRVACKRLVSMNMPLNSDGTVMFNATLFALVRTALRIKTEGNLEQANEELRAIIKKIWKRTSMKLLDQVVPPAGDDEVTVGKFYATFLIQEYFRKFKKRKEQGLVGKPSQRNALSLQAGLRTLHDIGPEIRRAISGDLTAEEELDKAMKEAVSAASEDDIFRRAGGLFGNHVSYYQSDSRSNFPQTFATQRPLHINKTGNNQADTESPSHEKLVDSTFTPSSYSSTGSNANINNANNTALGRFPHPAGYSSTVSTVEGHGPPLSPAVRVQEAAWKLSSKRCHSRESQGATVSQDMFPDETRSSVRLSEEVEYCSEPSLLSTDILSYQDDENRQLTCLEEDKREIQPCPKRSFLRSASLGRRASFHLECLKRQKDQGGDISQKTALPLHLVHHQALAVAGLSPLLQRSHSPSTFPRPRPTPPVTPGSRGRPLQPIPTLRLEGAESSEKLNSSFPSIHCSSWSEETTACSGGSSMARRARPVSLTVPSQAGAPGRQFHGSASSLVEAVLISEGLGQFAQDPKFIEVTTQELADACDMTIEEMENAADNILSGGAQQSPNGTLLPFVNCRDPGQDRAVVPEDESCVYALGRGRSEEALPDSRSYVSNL
T1 sequence (P54290 25-943 partner limits assumed): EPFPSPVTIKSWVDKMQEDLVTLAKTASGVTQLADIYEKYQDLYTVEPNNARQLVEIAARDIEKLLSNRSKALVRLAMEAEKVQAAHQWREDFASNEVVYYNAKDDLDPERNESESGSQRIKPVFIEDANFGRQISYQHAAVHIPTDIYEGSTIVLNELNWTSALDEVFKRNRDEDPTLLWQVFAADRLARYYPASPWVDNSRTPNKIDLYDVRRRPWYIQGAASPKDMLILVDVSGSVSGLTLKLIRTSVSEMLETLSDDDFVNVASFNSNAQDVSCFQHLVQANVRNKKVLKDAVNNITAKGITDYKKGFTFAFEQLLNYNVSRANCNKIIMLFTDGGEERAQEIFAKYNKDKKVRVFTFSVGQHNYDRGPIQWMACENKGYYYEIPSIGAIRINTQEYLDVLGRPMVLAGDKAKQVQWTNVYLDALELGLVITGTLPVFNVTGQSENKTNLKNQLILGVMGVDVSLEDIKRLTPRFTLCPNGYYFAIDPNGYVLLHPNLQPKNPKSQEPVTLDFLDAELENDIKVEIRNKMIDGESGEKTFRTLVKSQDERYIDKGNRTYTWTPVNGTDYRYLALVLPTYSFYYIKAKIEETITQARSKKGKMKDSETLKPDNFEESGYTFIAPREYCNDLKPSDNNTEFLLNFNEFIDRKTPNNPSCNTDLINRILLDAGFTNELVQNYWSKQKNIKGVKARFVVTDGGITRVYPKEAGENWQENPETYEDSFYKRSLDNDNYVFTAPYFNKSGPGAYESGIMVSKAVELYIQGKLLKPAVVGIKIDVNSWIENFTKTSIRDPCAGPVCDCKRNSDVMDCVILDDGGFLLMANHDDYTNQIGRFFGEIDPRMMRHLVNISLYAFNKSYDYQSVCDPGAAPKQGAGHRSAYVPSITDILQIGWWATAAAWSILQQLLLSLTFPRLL
T1 sequence (P54290 944-1091 partner limits assumed): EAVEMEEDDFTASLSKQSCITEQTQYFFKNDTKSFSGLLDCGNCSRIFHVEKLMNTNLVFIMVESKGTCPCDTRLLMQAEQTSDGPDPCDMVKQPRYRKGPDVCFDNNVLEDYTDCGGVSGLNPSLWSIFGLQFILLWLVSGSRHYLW

With `COC(=O)C1=C(C)NC(C)=C(C(=O)OC)C1c1ccccc1NC(=O)c1ccc([N+](=O)[O-])cc1` [Example 7] the “Mean arterial pressure, 5 min” value [1] was 115 Hgmm, the “Mean arterial pressure, 15 min” value [1] was 60 Hgmm and the “Mean arterial pressure, 30 min” value [1] was 50 Hgmm. For the same molecule, the “Mean arterial pressure, 60 min” value [1] was 60 Hgmm, the “Mean arterial pressure, 120 min” value [1] was 85 Hgmm and the “Systolic blood pressure, 2 h” value ([2]; 5 mg/kg p.o., 2 h) was 175.2 Hgmm. For the same molecule, the “Systolic blood pressure, 5 h” value ([2]; 5 mg/kg p.o., 5 h) was 157.6 Hgmm, the “Systolic blood pressure, 24 h” value ([2]; 5 mg/kg p.o., 24 h) was 217.6 Hgmm and the “Systolic blood pressure, 2 h” value ([2]; 10 mg/kg p.o., 2 h) was 164.0 Hgmm. The “Systolic blood pressure, 5 h” value ([2]; 10 mg/kg p.o., 5 h) was 164.0 Hgmm, the “Systolic blood pressure, 24 h” value ([2]; 10 mg/kg p.o., 24 h) was 230.0 Hgmm and the change in vivo at 5 mg/kg ([2]; 5 mg/kg p.o., 2 h, read-out: Systolic blood pressure reduction in %, 2 h) was -15%. The change in vivo at 5 mg/kg ([2]; 5 mg/kg p.o., 5 h, read-out: Systolic blood pressure reduction in %, 5 h) was -24%, the change in vivo at 5 mg/kg ([2]; 5 mg/kg p.o., 24 h, read-out: Systolic blood pressure reduction in %, 24 h) was 5% and the change in vivo at 10 mg/kg [2, 8] was -28%. For the same molecule, the change in vivo at 10 mg/kg [2, 9] was -28%, the change in vivo at 10 mg/kg [2, 10] was 1% and the “Systolic blood pressure, 0 h” value ([3]; 5 mg/kg p.o.) was 206.6 Hgmm. The “Pressure reduction in %, 2 h” value ([3]; 5 mg/kg p.o.) was -15%, the “Systolic blood pressure, 2 h” value ([3]; 5 mg/kg p.o.) was 177.7 Hgmm and the “Pressure reduction in %, 5 h” value ([3]; 5 mg/kg p.o.) was -13%. For the same molecule, the “Systolic blood pressure, 5 h” value ([3]; 5 mg/kg p.o.) was 188.6 Hgmm, the “Pressure reduction in %, 24 h” value ([3]; 5 mg/kg p.o.) was “+3%” and the “Systolic blood pressure, 24 h” value ([3]; 5 mg/kg p.o.) was 213.3 Hgmm. For the same molecule, the “Systolic blood pressure, 0 h” value ([3]; 10 mg/kg p.o.) was 198.8 Hgmm, the “Pressure reduction in %, 2 h” value ([3]; 10 mg/kg p.o.) was -31% and the “Systolic blood pressure, 2 h” value ([3]; 10 mg/kg p.o.) was 138.8 Hgmm. For the same molecule, the “Pressure reduction in %, 5 h” value ([3]; 10 mg/kg p.o.) was -25%, the “Systolic blood pressure, 5 h” value ([3]; 10 mg/kg p.o.) was 150.0 Hgmm and the “Pressure reduction in %, 24 h” value ([3]; 10 mg/kg p.o.) was “+6%”. For the same molecule, the “Systolic blood pressure, 24 h” value ([3]; 10 mg/kg p.o.) was 212.2 Hgmm, the “Systolic blood pressure, 0 h” value ([4]; 5 mg/kg p.o.) was 176.8 Hgmm and the “Pressure reduction in %, 2 h” value ([4]; 5 mg/kg p.o.) was -24%. The “Systolic blood pressure, 2 h” value ([4]; 5 mg/kg p.o.) was 135.7 Hgmm, the “Pressure reduction in %, 5 h” value ([4]; 5 mg/kg p.o.) was -16% and the “Systolic blood pressure, 5 h” value ([4]; 5 mg/kg p.o.) was 149.4 Hgmm. The “Pressure reduction in %, 24 h” value ([4]; 5 mg/kg p.o.) was “+2%”, the “Systolic blood pressure, 24 h” value ([4]; 5 mg/kg p.o.) was 180.8 Hgmm and the “Systolic blood pressure, 0 h” value ([4]; 10 mg/kg p.o.) was 176.2 Hgmm. The “Pressure reduction in %, 2 h” value ([4]; 10 mg/kg p.o.) was -28%, the “Systolic blood pressure, 2 h” value ([4]; 10 mg/kg p.o.) was 126.7 Hgmm and the “Pressure reduction in %, 5 h” value ([4]; 10 mg/kg p.o.) was -17%. For the same molecule, the “Systolic blood pressure, 5 h” value ([4]; 10 mg/kg p.o.) was 147.5 Hgmm, the “Pressure reduction in %, 24 h” value ([4]; 10 mg/kg p.o.) was 0% and the “Systolic blood pressure, 24 h” value ([4]; 10 mg/kg p.o.) was 177.5 Hgmm. For the same molecule, the IC50 [5] was 0.5 nM and the IC50 [6] was 6.3 ± 0.05 nM.
In the case of `COC(=O)C1=C(C)NC(C)=C(C(=O)OC)C1c1ccccc1NC(=O)C(F)(F)F` [Example 34, 2,6-Dimethyl-3,5-bis(methoxycarbonyl)-4-(2-trifluoro-acetamidophenyl)-1,4-dihydropyridine], the “Inhibition of PGF2alpha induced contraction” value [7] is reported as 98.0%, the “Mean arterial pressure, 5 min” value [1] is reported as 90 Hgmm and the “Mean arterial pressure, 15 min” value [1] is reported as 60 Hgmm. The “Mean arterial pressure, 30 min” value [1] was 75 Hgmm, the “Mean arterial pressure, 60 min” value [1] was 90 Hgmm and the “Mean arterial pressure, 120 min” value [1] was 105 Hgmm. For the same molecule, the “Systolic blood pressure, 2 h” value ([2]; 10 mg/kg p.o., 2 h) was 170.0 Hgmm, the “Systolic blood pressure, 5 h” value ([2]; 10 mg/kg p.o., 5 h) was 182.0 Hgmm and the “Systolic blood pressure, 24 h” value ([2]; 10 mg/kg p.o., 24 h) was 216.0 Hgmm. It also gave a change in vivo at 10 mg/kg [2, 8] of -25%, a change in vivo at 10 mg/kg [2, 9] of -19% and a change in vivo at 10 mg/kg [2, 10] of -4%. The “Systolic blood pressure, 0 h” value ([3]; 10 mg/kg p.o.) was 198.0 Hgmm, the “Pressure reduction in %, 2 h” value ([3]; 10 mg/kg p.o.) was -28% and the “Systolic blood pressure, 2 h” value ([3]; 10 mg/kg p.o.) was 141.0 Hgmm. For the same molecule, the “Pressure reduction in %, 5 h” value ([3]; 10 mg/kg p.o.) was -14%, the “Systolic blood pressure, 5 h” value ([3]; 10 mg/kg p.o.) was 167.0 Hgmm and the “Pressure reduction in %, 24 h” value ([3]; 10 mg/kg p.o.) was 0%. For the same molecule, the “Systolic blood pressure, 24 h” value ([3]; 10 mg/kg p.o.) was 199.0 Hgmm, the “Systolic blood pressure, 0 h” value ([4]; 5 mg/kg p.o.) was 192.0 Hgmm and the “Pressure reduction in %, 2 h” value ([4]; 5 mg/kg p.o.) was -22%. The “Systolic blood pressure, 2 h” value ([4]; 5 mg/kg p.o.) was 150.0 Hgmm, the “Pressure reduction in %, 5 h” value ([4]; 5 mg/kg p.o.) was -16% and the “Systolic blood pressure, 5 h” value ([4]; 5 mg/kg p.o.) was 163.0 Hgmm. For the same molecule, the “Pressure reduction in %, 24 h” value ([4]; 5 mg/kg p.o.) was 0%, the “Systolic blood pressure, 24 h” value ([4]; 5 mg/kg p.o.) was 193.0 Hgmm and the “Systolic blood pressure, 0 h” value ([4]; 10 mg/kg p.o.) was 189.0 Hgmm. For the same molecule, the “Pressure reduction in %, 2 h” value ([4]; 10 mg/kg p.o.) was -23%, the “Systolic blood pressure, 2 h” value ([4]; 10 mg/kg p.o.) was 146.0 Hgmm and the “Pressure reduction in %, 5 h” value ([4]; 10 mg/kg p.o.) was -30%. For the same molecule, the “Systolic blood pressure, 5 h” value ([4]; 10 mg/kg p.o.) was 134.0 Hgmm, the “Pressure reduction in %, 24 h” value ([4]; 10 mg/kg p.o.) was -2% and the “Systolic blood pressure, 24 h” value ([4]; 10 mg/kg p.o.) was 186.0 Hgmm. It also gave an IC50 [5] of 2.5 nM and an IC50 [6] of 16 ± 1.6 nM.
